Measurements from ChEMBL document CHEMBL1121659 (J Med Chem, 1981).
The source made the active and inactive calls. The rule behind the calls is not given here.

Legend:
[1] = system: Mus musculus; assay: Compound was evaluated for the dose required for protection against scMET-induced seizures after 4 hours of intraperitoneal administration; Inactive; type: functional, organism-based
[2] = system: Mus musculus; assay: Compound was evaluated for the neuro toxicity up to 4 hours after doses of <=300 mg/kg administered intraperitoneally; No toxicity; type: organism-based; details: in vivo, ip
[3] = system: Mus musculus; assay: Compound was evaluated for the dose required for protection against MES-induced seizures after 4 hours of intraperitoneal administration; Inactive; type: functional, organism-based

Row | SMILES | Activity [1] | Neurotoxicity [2] | Activity [3]
1 | Cc1ccc(C2(c3cccc(C(F)(F)F)c3)NC(=O)NC2=O)cc1 (stereo in doubt; 7) | inactive | No toxicity | inactive
2 | Cc1ccc(C2(c3ccc(C(F)(F)F)cc3)NC(=O)NC2=O)cc1 (stereo unspecified) | inactive | No toxicity | inactive
